Here are results for 4 compounds from publication doi:10.1101/2024.09.04.611242v3 (bioRxiv, 2024).

Series [1] has as its system PC12 cells. The series is described as follows: Toxicity of shuttles on PC12 cells. To be noted: 5 x 10^4 PC12 cells, 24h, 100% DMEM media. Format: cell-based.
Series [2] in a line: Selective Cu. To be noted: for Average half-time of Cu(II) withdrawal, Cu(II), D/F / Average half-time of Cu(II) withdrawal, Cu(II), DMEM 10%: Cu(II) alone, Cu(II)=shuttle=5 µM, 25°C, NBD emission at 545 nm, n=3; for Average half-time of Cu(II) withdrawal, Cu(II), D/F: D/F 100%; for Cu(II) withdrawn from D/F media over the measurement duration: D/F media spiked with 5 µM Cu(II), shuttle 5 µM, NBD emission followed for 5h. Format: binding.

For series [3], the target named is Cu(II)Aβ1-16 (Homo sapiens, UniProt P05067). The series is described as follows: Retrieval of Cu. Format: binding. To be noted: 25°C; for time to complete retrieval of Cu(II) from Aβ1-16: HEPES buffer / 10% DMEM, shuttle 5 µM, Aβ1-16 10 µM, Cu(II) 5 µM; for Kinetics of Cu(II) transfer from Aß1-16 to shuttle, DMEM 10%: shuttle=Cu(II)=5 µM, Aß1-16=10 µM, 10% DMEM, NBD emission 545 nm, n=3.

Series [4] deals with microglial cells in OHSC. The series is described as follows: Microglia proliferation and activation in OHSC. Format: cell-based, CD1 mice. To be noted: 10 µM Cu(II)=shuttle, 20 µM Aβ1-40/42, 48h, Iba1 staining, n=3.
Series [5] in a line: Reduction/release of shuttle-bound Cu. Format: physicochemical. As to conditions: 5 mM GSH, HEPES 100 mM pH 7.4.
The test system of series [6] is PC12 cells. As to the kind of experiment: Rescue of PC12 cells from Cu. Format: cell-based. To be noted: 5 µM shuttle, 10 µM Cu(II)Aβ1-16 0.5:1, AscH-, 10% DMEM, 24h, MTT, n=3.

For the compound `CN=C([S-])N/N=C/C=N/NC([S-])=NC.[Cu+2]` [Cu(II)GTSM], the “toxicity to PC12 cells (in words)” value in series [1] is “toxic to PC12 cells”.

Regarding `CNC(=S)NN=CC=NNC(=S)NC` [GTSM, glyoxal-bis(4-methylthiosemicarbazonato)], in series [1], the “toxicity to PC12 cells (in words)” value is recorded as “toxic at nanomolar concentration”.

Regarding “H2N-Dap-His-His-αR5W4^NBD [DapHH-αR5W4^NBD]”, in series [2], the “Average half-time of Cu(II) withdrawal, Cu(II), D/F” value came to 4.3 ± 0.6 min; the “Average half-time of Cu(II) withdrawal, Cu(II), DMEM 10%” value is recorded as less than 1 min; the “Cu(II) withdrawn from D/F media over the measurement duration” value is given as greater than 80%. In series [3], the “time to complete retrieval of Cu(II) from Aβ1-16” value was “less than two minutes” and the “Kinetics of Cu(II) transfer from Aß1-16 to shuttle, DMEM 10%” value is listed as 47.9 ± 9.2 s. The “effect on Cu(II)(Aβ1-40/42)-induced microglial cell proliferation in OHSC” value in series [4] was “reduced microglial cell proliferation”. The “half-time of reduction of shuttle-bound Cu(II) by GSH (in words)” value in series [5] was “only a few minutes”. For the same compound, the “rescue of Cu(II)Aβ1-16-induced toxicity in PC12 cells” value in series [6] is on record as “reversed”.

With “H2N-His-Dap-His-αR5W4^NBD [HDapH-αR5W4^NBD]”, in series [2], the “Average half-time of Cu(II) withdrawal, Cu(II), D/F” value is listed as less than 1 min; the “Average half-time of Cu(II) withdrawal, Cu(II), DMEM 10%” value is less than 1 min; the “Cu(II) withdrawn from D/F media over the measurement duration” value is recorded as “completely withdrew”. In addition, in series [3], the “time to complete retrieval of Cu(II) from Aβ1-16” value is on record as “less than two minutes” and the “Kinetics of Cu(II) transfer from Aß1-16 to shuttle, DMEM 10%” value was determined as 14.5 ± 3.8 s. Further, in series [4], the “effect on Cu(II)(Aβ1-40/42)-induced microglial cell proliferation in OHSC” value was “reduced microglial cell proliferation”. The “half-time of reduction of shuttle-bound Cu(II) by GSH (in words)” value in series [5] is “only a few minutes”. Moreover, the “rescue of Cu(II)Aβ1-16-induced toxicity in PC12 cells” value in series [6] is on record as “reversed”.
